In ChEMBL document CHEMBL1201862, “PubChem BioAssay data set” (2004):
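Test compounds were applied to cells in 96-well plates for 48 hours at 5 doses. GI50 is the concentration that inhibits growth by half.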 Calls of active or inactive are those of the source. Rule as the data show it: active = GI50 up to about 1.1 µM and inactive = higher.

What was measured:
Assay in all cases: NCI-60 cell line screen, 48 h
COLO 205 = system: COLO 205
M14 = system: M14
SN12C = system: SN12C
SK-MEL-2 = system: SK-MEL-2
U-251 = system: U-251
SNB-75 = system: SNB-75
NCI-H460 = system: NCI-H460
786-0 = system: 786-0
CCRF-CEM = system: CCRF-CEM
A549 = system: A549
T47D = system: T47D
IGROV-1 = system: IGROV-1
OVCAR-8 = system: OVCAR-8
UACC-62 = system: UACC-62
SK-MEL-5 = system: SK-MEL-5
Malme-3M = system: Malme-3M
MDA-MB-435 = system: MDA-MB-435
OVCAR-3 = system: OVCAR-3
SF-268 = system: SF-268
HT-29 = system: HT-29
RXF 393 = system: RXF 393
SR = system: SR
MDA-N = system: MDA-N
SK-MEL-28 = system: SK-MEL-28
UO-31 = system: UO-31
SNB-19 = system: SNB-19
TK-10 = system: TK-10
K562 = system: K562
LOX IMVI = system: LOX IMVI
HCT-15 = system: HCT-15
A498 = system: A498
MOLT-4 = system: MOLT-4
MDA-MB-231 = system: MDA-MB-231
HCT-116 = system: HCT-116
OVCAR-4 = system: OVCAR-4
Hs-578T = system: Hs-578T
NCI/ADR-RES = system: NCI/ADR-RES
NCI-H226 = system: NCI-H226
SF-539 = system: SF-539
CAKI-1 = system: CAKI-1
HL-60 = system: HL-60
DU-145 = system: DU-145
PC-3 = system: PC-3
SW-620 = system: SW-620
SF-295 = system: SF-295
MCF7 = system: MCF7
KM12 = system: KM12
HOP-92 = system: HOP-92
SK-OV-3 = system: SK-OV-3
NCI-H23 = system: NCI-H23
OVCAR-5 = system: OVCAR-5
ACHN = system: ACHN
UACC-257 = system: UACC-257
BT-549 = system: BT-549
HOP-62 = system: HOP-62
NCI-H522 = system: NCI-H522

## COc1cc(S(=O)(=O)Nc2nc(-c3ccc(N4C(=O)/C(=C/C=C/c5ccccc5)N=C4c4ccccc4)cc3)cs2)ccc1Cl
COLO 205
  GI50: > 100 µM (inactive)
M14
  GI50: > 100 µM (inactive)
SN12C
  GI50: > 100 µM (inactive)
SK-MEL-2
  GI50: 78.3 µM (inactive)
U-251
  GI50: 53.1 µM (inactive)
SNB-75
  GI50: 93.1 µM (inactive)
NCI-H460
  GI50: > 100 µM (inactive)
786-0
  GI50: > 100 µM (inactive)
CCRF-CEM
  GI50: 58.7 µM (inactive)
A549
  GI50: > 100 µM (inactive)
T47D
  GI50: 48.1 µM (inactive)
IGROV-1
  GI50: 37 µM (inactive)
OVCAR-8
  GI50: > 100 µM (inactive)
UACC-62
  GI50: 35 µM (inactive)
SK-MEL-5
  GI50: 53 µM (inactive)
Malme-3M
  GI50: 29.2 µM (inactive)
MDA-MB-435
  GI50: > 100 µM (inactive)
OVCAR-3
  GI50: > 100 µM (inactive)
SF-268
  GI50: 28.9 µM (inactive)
HT-29
  GI50: > 100 µM (inactive)
RXF 393
  GI50: 37.6 µM (inactive)
SR
  GI50: 58.3 µM (inactive)
MDA-N
  GI50: > 100 µM (inactive)
SK-MEL-28
  GI50: 81.3 µM (inactive)
UO-31
  GI50: > 100 µM (inactive)
SNB-19
  GI50: 99.3 µM (inactive)
TK-10
  GI50: > 100 µM (inactive)
K562
  GI50: 72.3 µM (inactive)
LOX IMVI
  GI50: 53.5 µM (inactive)
HCT-15
  GI50: > 100 µM
A498
  GI50: > 100 µM (inactive)
MOLT-4
  GI50: 69 µM (inactive)
MDA-MB-231
  GI50: 34.3 µM (inactive)
HCT-116
  GI50: 78.9 µM (inactive)
OVCAR-4
  GI50: > 100 µM (inactive)
Hs-578T
  GI50: 36.2 µM (inactive)
NCI/ADR-RES
  GI50: > 100 µM (inactive)
NCI-H226
  GI50: > 100 µM (inactive)
SF-539
  GI50: > 100 µM (inactive)
CAKI-1
  GI50: > 100 µM (inactive)
HL-60
  GI50: 60.7 µM (inactive)
DU-145
  GI50: > 100 µM (inactive)
PC-3
  GI50: > 100 µM (inactive)
SW-620
  GI50: > 100 µM (inactive)
SF-295
  GI50: > 100 µM (inactive)
MCF7
  GI50: 43 µM (inactive)
KM12
  GI50: > 100 µM (inactive)
HOP-92
  GI50: 28.3 µM (inactive)
SK-OV-3
  GI50: > 100 µM (inactive)
NCI-H23
  GI50: > 100 µM (inactive)
OVCAR-5
  GI50: > 100 µM (inactive)
ACHN
  GI50: > 100 µM (inactive)
UACC-257
  GI50: > 100 µM (inactive)
BT-549
  GI50: 45 µM (inactive)
HOP-62
  GI50: > 100 µM (inactive)
NCI-H522
  GI50: 48.2 µM (inactive)
